System: human CD70-expressing tumor cells (Raji, Caki-1, 786-O)
Assay: In vitro cytotoxicity (CTG, 96 h), all cell lines
Type: cell-based
Protocol: Raji (ATCC, CCL-86), Caki-1 (Cobioer, CBP60448), and 786-O (BNCC, BNCC338472) were cultured in CO2 thermostatic incubator at 37° C. with 5% CO2 in standard conditions. Cells were sub-cultured every 1-2 days, digested with 0.25% trypsin and passaged with a suitable density. When the cells were in the logarithmic growth phase and the amount meeting the assay's demand, cells were collected and plated onto 96-well solid white flat bottom plates for assay. One day later test articles (2E7 antibody or 2E7-LD038 conjugate ranging from 2 μM to 0.1 nM, or exatecan ranging from 20 μM to 0.03 nM) were added to the cells. Plates were then incubated at 37° C. for 96 h. Cell Titer Glo (CTG) (40 μl per well) was subsequently added to the plates. Luciferase reading was collected 5 min after and analyzed by Microplate readers. All readings were normalized as percentage of viable cells in the untreated control wells and the IC50 values were calculated by Prism software.

CC[C@@]1(O)C(=O)OCc2c1cc1n(c2=O)Cc2c-1nc1cc(F)c(C)c3c1c2[C@@H](N)CC3 [Exatecan, exatecan]
cytotoxicity: cytotoxic on all cell lines

From US20260083853A1, “CD70 ANTIBODY DRUG CONJUGATES AND METHODS OF USING THE SAME” (Genmab A/S, priority 2022, published 2026)
